Where a name gives a salt, the structure may show the parent alone.

The results in this text go back to patent publication US20230365556A1, “N-ACYL AMINO ACID COMPOUNDS AND METHODS OF USE” (Pliant Therapeutics, Inc., priority 2016, published 2023).

Sequence of αvβ1 integrin (αvβ1 expressing CHO cells) (P06756 31-889): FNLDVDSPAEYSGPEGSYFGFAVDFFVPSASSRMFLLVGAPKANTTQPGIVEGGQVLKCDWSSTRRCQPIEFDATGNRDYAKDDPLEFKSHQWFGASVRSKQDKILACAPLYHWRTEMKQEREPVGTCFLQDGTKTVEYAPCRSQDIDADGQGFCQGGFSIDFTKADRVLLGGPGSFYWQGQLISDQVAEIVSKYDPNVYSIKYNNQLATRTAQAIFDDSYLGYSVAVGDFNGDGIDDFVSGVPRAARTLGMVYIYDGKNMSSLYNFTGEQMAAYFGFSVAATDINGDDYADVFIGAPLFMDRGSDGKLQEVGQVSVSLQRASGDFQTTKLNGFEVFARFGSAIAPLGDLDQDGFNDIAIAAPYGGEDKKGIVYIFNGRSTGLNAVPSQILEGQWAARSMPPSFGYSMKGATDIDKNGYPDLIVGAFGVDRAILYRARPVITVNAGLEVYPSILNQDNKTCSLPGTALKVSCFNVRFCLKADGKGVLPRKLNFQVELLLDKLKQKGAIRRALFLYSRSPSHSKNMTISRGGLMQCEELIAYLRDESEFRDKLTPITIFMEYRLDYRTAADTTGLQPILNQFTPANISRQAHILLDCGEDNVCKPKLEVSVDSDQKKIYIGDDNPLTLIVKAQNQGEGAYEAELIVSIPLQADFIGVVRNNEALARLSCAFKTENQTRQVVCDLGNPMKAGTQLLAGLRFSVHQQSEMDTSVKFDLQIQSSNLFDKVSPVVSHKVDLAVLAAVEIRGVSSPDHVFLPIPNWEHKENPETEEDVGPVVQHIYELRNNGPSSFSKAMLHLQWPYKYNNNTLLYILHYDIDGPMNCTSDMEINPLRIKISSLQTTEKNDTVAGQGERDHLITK
Sequence of αvβ1 integrin (αvβ1 expressing CHO cells) (P06756 891-1048 partner): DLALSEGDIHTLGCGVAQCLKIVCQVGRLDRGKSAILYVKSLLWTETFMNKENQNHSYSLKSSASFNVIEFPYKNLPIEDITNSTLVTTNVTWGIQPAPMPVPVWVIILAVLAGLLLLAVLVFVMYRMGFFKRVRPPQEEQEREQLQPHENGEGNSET
Sequence of αvβ1 integrin (αvβ1 expressing CHO cells) (P05556 21-798): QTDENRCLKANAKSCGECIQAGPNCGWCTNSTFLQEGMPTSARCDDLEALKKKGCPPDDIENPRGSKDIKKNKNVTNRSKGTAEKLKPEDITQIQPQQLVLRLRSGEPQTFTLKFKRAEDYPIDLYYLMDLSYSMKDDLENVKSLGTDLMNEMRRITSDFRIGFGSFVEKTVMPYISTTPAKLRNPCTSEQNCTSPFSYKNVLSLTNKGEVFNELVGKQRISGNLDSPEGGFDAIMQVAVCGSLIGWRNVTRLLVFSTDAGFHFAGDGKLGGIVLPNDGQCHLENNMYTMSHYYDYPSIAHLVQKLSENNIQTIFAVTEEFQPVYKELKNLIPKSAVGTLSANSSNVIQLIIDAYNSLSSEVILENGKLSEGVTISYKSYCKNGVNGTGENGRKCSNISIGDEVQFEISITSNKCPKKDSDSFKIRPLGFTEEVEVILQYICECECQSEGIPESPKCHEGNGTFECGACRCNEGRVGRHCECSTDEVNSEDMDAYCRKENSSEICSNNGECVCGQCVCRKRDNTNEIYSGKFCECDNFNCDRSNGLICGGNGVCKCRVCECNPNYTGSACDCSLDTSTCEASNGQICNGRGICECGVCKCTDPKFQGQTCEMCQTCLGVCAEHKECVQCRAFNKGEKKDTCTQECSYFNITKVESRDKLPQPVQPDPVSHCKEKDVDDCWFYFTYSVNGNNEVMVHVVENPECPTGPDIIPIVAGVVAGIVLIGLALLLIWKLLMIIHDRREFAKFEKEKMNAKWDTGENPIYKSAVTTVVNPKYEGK

The experiment concerns the target αvβ1 integrin (αvβ1 expressing CHO cells) (Homo sapiens (Human), UniProt P05556+P06756). Put plainly: Cell adhesion assay: inhibition of αvβ1 expressing CHO cells attaching to TGFβ1LAP. It counts as cell-based. The conditions noted are these: 1 h at 37° C., crystal violet absorbance 595 nm, read-out: αvβ1 Inhibition IC50 (nM)-range. As to the method: Example B1—Cell Adhesion Assay
In order to determine the potency, the compounds were assessed for their ability to inhibit αvβ1 expressing CHO cells attach to TGFβ1LAP. Microplates were coated overnight with 2 ug/ml TGFβ1LAP at 4° C., and blocked with 2% BSA/PBS for 30 min before the assay. Cells were detached and washed in PBS. After that the cells were resuspended in DMEM at 1.0×10^6 cells/ml, fifty microliter of cell suspension and fifty microliter of compound solution were added into the plate. The plates were incubated for one hour at 37° C. in humidified 5% carbon dioxide. Non-adherent cells were removed by centrifugation top side down at 58 g for 5 min. The attached cells were fixed and stained with 0.5% crystal violet (in 20% methanol and 1% formaldehyde) and the wells washed with PBS. Crystal violet was dissolved in 2% Triton-X in PBS. The relative number of cells in each well was evaluated by the absorbance at 595 nm in a microplate reader (Tecan). IC50 values were determined by non-linear regression with four parameters (Graphpad Prism 7.01, Y=Bottom+(Top−Bottom)/(1+10^((Log IC50−X)*HillSlope)).
The compounds tested were compound samples prepared according to procedures described in the Synthetic Examples section, with the stereochemical purity as indicated in the Examples indicated for Example or Compound No. 1-62. The compounds tested were predominantly S-configuration at the alpha carbon of the amino acid scaffold, except for compounds 123, 124, and 125 which were predominantly R-configuration at the alpha carbon of the amino acid scaffold. “Example or Compound No.” in Table B-1 refers to the compound illustrated in the examples for Example or Compound Nos. 1-62 (the compounds of Examples 1-62 are labeled as Compounds 1-62 in Table 1). “Example or Compound No.” in Table B-1 refers to the compound number as indicated in Table 1 or Table 2 for Example or Compound Nos. 63-126.
Take `O=C(NC(Cc1ccc(OCCCC2Cc3cccnc3N2)cc1)C(=O)O)c1c(Cl)cccc1Cl` (stereo not drawn) [Example 18, 2-(2,6-dichlorobenzamido)-3-(4-(3-(2,3-dihydro-1H-pyrrolo[2,3-b]pyridin-2-yl)propoxy)phenyl)propanoic acid]: the IC50 (as a rule, the midpoint of a concentration-inhibition curve) is less than 50 nM. Take `O=C(N[C@@H](Cc1ccc(OCCCc2ccc3c(n2)NCCC3)cc1)C(=O)O)c1cc(Cl)cc(Cl)c1` [Example 35, (2S)-2-[(3,5-dichlorobenzoyl)amino]-3-[4-[3-(5,6,7,8-tetrahydro-1,8-naphthyridin-2-yl)propoxy]phenyl]propanoic acid]: the 50% inhibitory concentration (IC50) is less than 50 nM.

As to `Cn1ncc2cc(C(=O)N[C@@H](Cc3ccc(OCCCc4ccc5c(n4)NCCC5)cc3)C(=O)O)ccc21` [Example 43, (2S)-2-[(1-methylindazole-5-carbonyl)amino]-3-[4-[3-(5,6,7,8-tetrahydro-1,8-naphthyridin-2-yl)propoxy]phenyl]propanoic acid], the half-maximal inhibitory concentration (IC50) is less than 50 nM.

Regarding `Cn1ncc2cccc(C(=O)N[C@@H](CCCCCCCc3ccc4c(n3)NCCC4)C(=O)O)c21` [Compound 114], the 50% inhibitory concentration (IC50) is less than 50 nM.

Turning to `O=C(N[C@@H](Cc1ccc(COCCc2ccc3c(n2)NCCC3)cc1)C(=O)O)c1c(Cl)cccc1Cl` [Example 29, (S)-2-(2,6-dichlorobenzamido)-3-(4-((2-(5,6,7,8-tetrahydro-1,8-naphthyridin-2-yl)ethoxy)methyl)phenyl)propanoic acid trifluoroacetate], the concentration for half-maximal inhibition (IC50) was less than 50 nM.

Turning to `Cn1cnc2ccc(C(=O)N[C@@H](Cc3ccc(OCCCc4ccc5c(n4)NCCC5)cc3)C(=O)O)cc21` [Example 2, (S)-2-(1-methyl-1H-benzo[d]imidazole-6-carboxamido)-3-(4-(3-(5,6,7,8-tetrahydro-1,8-naphthyridin-2-yl)propoxy)phenyl)propanoic acid], the IC50 was less than 50 nM. As for `O=C(N[C@@H](CCCCCCCc1ccc2c(n1)NCCC2)C(=O)O)c1ccc2[nH]ncc2c1` [Compound 103], the figure is 50 to 250 nM. To `O=C(N[C@@H](Cc1ccc(OCCCc2ccc3c(n2)NCCC3)cc1)C(=O)O)c1ccc2cn[nH]c2c1` [Example 40, (2S)-2-(1H-indazole-6-carbonylamino)-3-[4-[3-(5,6,7,8-tetrahydro-1,8-naphthyridin-2-yl)propoxy]phenyl]propanoic acid] belongs less than 50 nM; to `O=CNc1cc(C(=O)N[C@@H](Cc2ccc(OCCCc3ccc4c(n3)NCCC4)cc2)C(=O)O)ccc1O` [Example 12, (S)-2-(3-formamido-4-hydroxybenzamido)-3-(4-(3-(5,6,7,8-tetrahydro-1,8-naphthyridin-2-yl)propoxy)phenyl)propanoic acid], less than 50 nM; to `O=C(N[C@@H](Cc1cccc(OCCCc2ccc3c(n2)NCCC3)c1)C(=O)O)c1c(Cl)cccc1Cl` [Example 37, (2S)-2-((2,6-dichlorobenzoyl)amino)-3-(3-(3-(5,6,7,8-tetrahydro-1,8-naphthyridin-2-yl)propoxy)phenyl)propanoic acid], 250 to 1000 nM. Regarding `O=C(N[C@@H](CCCCCCCc1ccc2c(n1)NCCC2)C(=O)O)c1ccc2cn(C(F)F)nc2c1` [Compound 108], the IC50 lay within 50 to 250 nM.

Regarding `CN1C(=O)CN=C1NCCCCOc1ccc(C[C@H](NC(=O)c2c(Cl)cccc2Cl)C(=O)O)cc1` [Example 57, (S)-2-(2,6-dichlorobenzamido)-3-(4-(4-((1-methyl-5-oxo-4,5-dihydro-1H-imidazol-2-yl)amino)butoxy)phenyl)propanoic acid], the concentration for half-maximal inhibition (IC50) is more than 1000 nM. As for `O=C(N[C@@H](CCCCCCCc1ccc2c(n1)NCCC2)C(=O)O)c1ccc2cnn(C(F)F)c2c1` [Compound 105], the figure is 250 to 1000 nM.

As to `O=C(N[C@@H](Cc1ccc(OCCCc2ccc3c(n2)NCCC3)cc1)C(=O)O)c1cccnc1` [Example 14, (S)-2-(nicotinamido)-3-(4-(3-(5,6,7,8-tetrahydro-1,8-naphthyridin-2-yl)propoxy)phenyl)propanoic acid], the IC50 was less than 50 nM. With `O=C(N[C@@H](CCCCCCCc1ccc2c(n1)NCCC2)C(=O)O)c1ccc2c(cnn2C(F)F)c1` [Compound 107], the IC50 is 250 to 1000 nM. As to `Cn1cc(-c2ccc(C(=O)N[C@@H](CCCCCCCc3ccc4c(n3)NCCC4)C(=O)O)cc2)cn1` [Compound 113], the IC50 fell in the range of 50 to 250 nM. For `O=C(N[C@@H](CCCCCCCc1ccc2c(n1)NCCC2)C(=O)O)c1ccc2nn(C(F)F)cc2c1` [Compound 106], the IC50 was 250 to 1000 nM. To `O=C(N[C@@H](CCCCCCCc1ccc2c(n1)NCCC2)C(=O)O)c1c(Cl)cccc1Cl` [Example 19, (S)-2-(2,6-dichlorobenzamido)-9-(5,6,7,8-tetrahydro-1,8-naphthyridin-2-yl)nonanoic acid] belongs less than 50 nM.

For `Cn1cnc2cc(C(=O)N[C@@H](Cc3ccc(OCCCc4ccc5c(n4)NCCC5)cc3)C(=O)O)ccc21` [Example 9, (S)-2-(1-methyl-1H-benzo[d]imidazole-5-carboxamido)-3-(4-(3-(5,6,7,8-tetrahydro-1,8-naphthyridin-2-yl)propoxy)phenyl)propanoic acid], the IC50 lay in the range of 50 to 250 nM. As for `O=C(N[C@@H](Cc1ccc(OCCCc2ccc3c(n2)NCCC3)cc1)C(=O)O)c1ccccc1` [Example 1, (S)-2-benzamido-3-(4-(3-(5,6,7,8-tetrahydro-1,8-naphthyridin-2-yl)propoxy)phenyl)propanoic acid], the figure is less than 50 nM; as for `CN1CCN=C(NCCCCOc2ccc(C[C@H](NC(=O)c3c(Cl)cccc3Cl)C(=O)O)cc2)C1=O` [Example 17, (S)-2-(2,6-dichlorobenzamido)-3-(4-(4-((4-methyl-3-oxo-3,4,5,6-tetrahydropyrazin-2-yl)amino)butoxy)phenyl)propanoic acid], more than 1000 nM. As for `O=C(N[C@@H](CCCCCCCc1ccc2c(n1)NCCC2)C(=O)O)c1cn[nH]c1-c1ccccc1` [Compound 110], the figure is 50 to 250 nM; as for `Cn1ncc2ccc(C(=O)N[C@@H](Cc3ccc(OCCCc4ccc5c(n4)NCCC5)cc3)C(=O)O)cc21` [Example 41, (2S)-2-[(1-methylindazole-6-carbonyl)amino]-3-[4-[3-(5,6,7,8-tetrahydro-1,8-naphthyridin-2-yl)propoxy]phenyl]propanoic acid], less than 50 nM.

`Cn1ncc2cc(C(=O)N[C@@H](CCCCCCCc3ccc4c(n3)NCCC4)C(=O)O)ccc21` [Compound 104]: the IC50 lay in the range of 50 to 250 nM.

Turning to `O=C(NC(CN1CC(OCCCc2ccc3c(n2)NCCC3)C1)C(=O)O)c1c(Cl)cccc1Cl` (racemic) [Example 28, (+/−)-2-(2,6-dichlorobenzamido)-3-(3-(3-(5,6,7,8-tetrahydro-1,8-naphthyridin-2-yl)propoxy)azetidin-1-yl)propanoic acid], the concentration for half-maximal inhibition (IC50) was 250 to 1000 nM. As for `O=C(N[C@@H](C/C=C/CCCCc1ccc2c(n1)NCCC2)C(=O)O)c1c(Cl)cccc1Cl` [Example 20, (S,E)-2-(2,6-dichlorobenzamido)-9-(5,6,7,8-tetrahydro-1,8-naphthyridin-2-yl)non-4-enoic acid], the figure is less than 50 nM. As for `O=C(NC(Cc1ccc(O[C@H]2CC[C@@H](Nc3ccccn3)CC2)cc1)C(=O)O)c1c(Cl)cccc1Cl` (stereo partly drawn) [Example 38, (2S)-2-[(2,6-dichlorobenzoyl)amino]-3-[4-[4-cis-(2-pyridylamino)cyclohexoxy]phenyl]propanoic acid], the figure is less than 50 nM.
